How the values were obtained:
mouse kindling model = details: anti-seizure effect (ED50) in mouse kindling model versus neurotoxic effect (TD50) in rotarod test; compared with a control compound; cited from earlier work
[1] = test system: levodopa-induced dyskinesia model cynomolgus monkeys; assay: Test Example 3: dyskinesia score in levodopa-induced dyskinesia model monkeys; type: in vivo; parameters: key to Dyskinesia score: dyskinesia score 0 = normal home cage activity to 4 = severe stereotypy
Method: A levodopa/carbidopa mixture containing 80 mg/kg of levodopa and 20 mg/kg of carbidopa and having a solution volume of 5 mL/kg was orally administered to Parkinson's disease model cynomolgus monkeys at the age of 6 to 7 prepared in the same way as in Test Example 1 for 8 consecutive days to provide levodopa-induced dyskinesia model cynomolgus monkeys. The induction of dyskinesia was determined based on the “dyskinesia score” in accordance with the following behavior evaluation items in the following test on activity in home cages, and animals having dyskinesia scores of 1 or more on day 7 of the repeated administration of the levodopa/carbidopa mixture were used.
Home cage activities corresponding to dyskinesia scores • 0: Normal home cage activity (exploring or inactivity, able to drink water, plays with mirror or caging, climbing of the walls). • 1: Some interference with normal activity, however able to climb walls. • 2: Occasional exploration of cage, some stereotypy • 3: Little normal movement, lack of climbing of walls, clear stereotypy • 4: Lack of normal home cage activity, lack of normal exploratory behavior and movement, severe stereotypy
Seven levodopa-induced dyskinesia model cynomolgus monkeys were randomized into 4 groups of approximately equal mean and variance in terms of body weight. On subsequent cycles 2, 3, and 4, the animals were crossed over to receive the other treatment. A wash out period of one week or more was set between cycles.
One of the seven animals was excluded from the evaluation of cycles 3 and 4 because it was unable to get up due to dyskinesia on day 8 in cycle 3 of the repeated administration of the levodopa/carbidopa mixture.
By the end of the study, each animal had received all the four treatments. Each substance was administered 1 hr. after the administration on day 8 of the repeated administration of the levodopa/carbidopa mixture. As a vehicle, an aqueous solution containing 0.43% (w/v) methyl cellulose 400, 10% (v/v) dimethyl sulfoxide (DMSO), and 4.5% (w/v) Cremophor (R) were used.
Before the administration, and 1 hr., 4 hrs., and 24 hrs. after the administration of the test substances, the dyskinesia scores of the animals were evaluated. The behavior evaluation was performed in a blinded manner. The dyskinesia scores of the groups were compared using Steel's test. The p-values of less than 0.05 were considered to be statistically significant.

In the case of NS(=O)(=O)N[C@H]1c2c(F)cc(F)cc2CC1(F)F [Compound (I), N-[(1S)-2,2,5,7-tetrafluoro-2,3-dihydro-1H-inden-1-yl]sulfamide], the “therapeutic index (TD50/ED50)” value (mouse kindling model) is given as “higher”, the Dyskinesia score ([1]; Compound (I) 25 mg/kg (G2), 1 hr. after administration) is given as 2.0 ± 0.0 and the Dyskinesia score ([1]; Compound (I) 25 mg/kg (G2), 4 hrs. after administration) is given as 1.6 ± 0.2. For the same compound, the Dyskinesia score ([1]; Compound (I) 25 mg/kg (G2), 24 hrs. after administration) was 2.0 ± 0.0, the Dyskinesia score ([1]; Compound (I) 25 mg/kg (G2), Pre (before administration)) was 1.7 ± 0.2 and the Dyskinesia score ([1]; Compound (I) 50 mg/kg (G3), 1 hr. after administration) was 1.8 ± 0.2. For the same compound, the Dyskinesia score ([1]; Compound (I) 50 mg/kg (G3), 4 hrs. after administration) was 1.3 ± 0.2, the “Mean value of the dyskinesia scores compared with other groups” value ([1]; Compound (I) 50 mg/kg (G3), 4 hrs. after the administration, versus vehicle (G1) and istradefylline (G4)) was “lower as compared with the vehicle-treated group (G1) and the istradefylline-treated group (G4)” and the Dyskinesia score ([1]; Compound (I) 50 mg/kg (G3), 24 hrs. after administration) was 1.8 ± 0.2. For the same compound, the Dyskinesia score ([1]; Compound (I) 50 mg/kg (G3), Pre (before administration)) was 1.7 ± 0.2.
